Values after ≈ are worked out from the molar mass of the structure shown. “Also recorded” adds a separate entry of the source. Like-named read-outs stand apart in the source and are kept apart here.
Key:
[1] = tested on: DRD2 (short and long isoforms); assay: β-arrestin recruitment GPCR reporter assay, DRD2; assay type: cell-based
[2] = Rat non-GLP oral single dose study; assay type: in vivo; details: in vivo; rat non-GLP oral single dose study; read-out: NOAEL
MV411 AML xenograft = MV411 AML xenograft model; assay type: in vivo, athymic nude mice; details: oral weekly administration; ONC212 50 mg/kg, ONC201 at similar doses (FIG. 30A)
HCT116, MDA-MB-231, U87 [3] = assay: cells; details: Homo sapiens, 72 h, read-out: viability of tumor cells
human DRD2 [4] = target: T1, human DRD2 (Homo sapiens, UniProt P14416); assay: cell-based; details: HEK-293T, read-out: inhibition of the DRD2 dopamine response
[5] = target: DRD2 alanine-scan mutation library (Homo sapiens, UniProt P14416, L81A)
[6] = target: DRD2 alanine-scan mutation library (Homo sapiens, UniProt P14416, E95A)
[7] = target: DRD2 alanine-scan mutation library (Homo sapiens, UniProt P14416, I397A)
[8] = target: DRD2 alanine-scan mutation library (Homo sapiens, UniProt P14416, T165A)
[9] = target: DRD2 alanine-scan mutation library (Homo sapiens, UniProt P14416, V91A)
[10] = target: DRD2 alanine-scan mutation library (Homo sapiens, UniProt P14416, Y192A)
[11] = target: DRD2 alanine-scan mutation library (Homo sapiens, UniProt P14416, V196A)
[12] = target: DRD2 alanine-scan mutation library (Homo sapiens, UniProt P14416, A177S)
human DRD2 [13] = target: T1, human DRD2
prolactin = details: advanced solid tumors, ELISA in peripheral blood after ONC201
[14] = tested on: nuclear hormone receptors; details: ONC201 2 or 20 μM (FIG. 5D)
[15] = tested on: Staphylococcus aureus ATCC 29213; assay: MIC by micro-broth dilution, S. aureus ATCC 29213; assay type: cell-based
[16] = tested on: Staphylococcus aureus ATCC 33591; assay: MIC by micro-broth dilution, S. aureus ATCC 33591; assay type: cell-based
kinome = details: in vitro kinase enzymatic activity, ONC201 1 μM (FIG. 5E)
in vitro = details: human, Cell viability of normal cells, about 1-5 mg/mL of ONC201, 72 hours
DRD1 = DRD1 (Homo sapiens, UniProt P21728); details: arrestin recruitment reporter assay
HCT116, MDA-MB-231, U87 [17] = details: about 1-5 mg/mL of ONC201, 72 hours
DRD5 = DRD5 (Homo sapiens, UniProt P21918); assay: β-arrestin recruitment GPCR reporter assay, DRD5; assay type: cell-based
control GPCR = details: 100 μM ONC201
MV411 AML cells = assay: Cell viability, MV411 AML cells; assay type: cell-based
[18] = tested on: Staphylococcus aureus ATCC 700699; assay: MIC by micro-broth dilution, S. aureus ATCC 700699; assay type: cell-based; details: Staphylococcus aureus
DRD2L = DRD2L (Homo sapiens, UniProt P14416); assay: Gaddum/Schild analysis of arrestin recruitment to DRD2L; assay type: cell-based; details: arrestin recruitment / cAMP reporters (FIGS. 5B, 5C, 5F)
DRD4 = DRD4 (Homo sapiens, UniProt P21917); details: arrestin recruitment reporter assay
DRD3 = DRD3 (Homo sapiens, UniProt P35462); assay: β-arrestin recruitment GPCR reporter assay, DRD3; assay type: cell-based
normal cells = assay: In vitro toxicity to normal cells; assay type: cell-based; details: FIG. 33
[19] = Mouse tolerability (non-GLP oral single dose / MTD study); assay type: in vivo; details: in vivo; mouse; non-GLP oral single dose study / MTD study
Procedure: ONC212 25 mg/kg represents NOAEL in mouse and rat non-GLP oral single dose studies which is also the efficacious dose in mouse xenograft studies. […].
Dual targeting of DRD2/3 and GPR132/91 represents a novel strategy for anti-cancer efficacy without toxicity. […] […]. […] […].

human cancer cells = assay: Viability of human cancer cells at 72 hours post-treatment; assay type: cell-based; details: relative to the potency of ONC201; viability of human cancer cells at 72 hours post-treatment
GPR132 = target: T2, GPR132 (Homo sapiens, UniProt Q9UNW8); assay: β-arrestin recruitment GPCR reporter assay, GPR132; assay type: cell-based
T2 sequence (Q9UNW8 1-380): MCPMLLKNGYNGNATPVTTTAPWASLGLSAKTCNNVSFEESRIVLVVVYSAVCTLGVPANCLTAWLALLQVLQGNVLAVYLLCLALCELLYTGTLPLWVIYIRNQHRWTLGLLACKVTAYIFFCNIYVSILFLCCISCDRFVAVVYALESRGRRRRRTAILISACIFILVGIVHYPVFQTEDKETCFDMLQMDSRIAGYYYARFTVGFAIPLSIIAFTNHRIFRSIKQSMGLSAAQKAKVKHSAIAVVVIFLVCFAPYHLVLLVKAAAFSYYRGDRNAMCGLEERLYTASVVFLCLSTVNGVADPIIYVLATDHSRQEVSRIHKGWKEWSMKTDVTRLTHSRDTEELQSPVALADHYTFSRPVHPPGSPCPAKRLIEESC

GPR91 = GPR91 (Homo sapiens, UniProt Q9BXA5); assay: β-arrestin recruitment GPCR reporter assay, GPR91; assay type: cell-based
Chain of GPR91 (Q9BXA5 whole entry): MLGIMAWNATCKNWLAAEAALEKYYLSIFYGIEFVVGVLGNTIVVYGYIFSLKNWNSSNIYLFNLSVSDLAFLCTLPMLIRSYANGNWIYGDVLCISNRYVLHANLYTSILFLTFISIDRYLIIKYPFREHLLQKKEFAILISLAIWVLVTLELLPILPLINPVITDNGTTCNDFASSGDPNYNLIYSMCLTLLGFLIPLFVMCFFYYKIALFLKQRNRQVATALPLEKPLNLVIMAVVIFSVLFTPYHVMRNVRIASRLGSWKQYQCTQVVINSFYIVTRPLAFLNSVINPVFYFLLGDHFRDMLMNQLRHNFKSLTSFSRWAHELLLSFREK

T1 sequence (P14416 whole entry): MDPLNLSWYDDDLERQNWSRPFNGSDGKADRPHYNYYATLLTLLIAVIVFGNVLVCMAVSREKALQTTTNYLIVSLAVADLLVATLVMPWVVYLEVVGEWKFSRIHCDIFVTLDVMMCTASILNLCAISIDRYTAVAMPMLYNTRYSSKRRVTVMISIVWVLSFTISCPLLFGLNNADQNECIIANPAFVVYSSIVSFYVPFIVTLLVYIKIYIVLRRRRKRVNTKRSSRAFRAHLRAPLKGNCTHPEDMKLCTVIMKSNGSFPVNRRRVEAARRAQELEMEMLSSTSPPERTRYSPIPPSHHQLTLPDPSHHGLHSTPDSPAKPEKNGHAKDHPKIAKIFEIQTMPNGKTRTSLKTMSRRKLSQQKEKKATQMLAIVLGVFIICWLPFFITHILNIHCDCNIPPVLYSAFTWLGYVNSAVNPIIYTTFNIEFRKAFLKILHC
Chain of DRD2 alanine-scan mutation library (Homo sapiens, UniProt P14416, T165A) (P14416 whole entry T165A): as the sequence (P14416 whole entry) above, with T165A counted along it
Chain of DRD2 alanine-scan mutation library (Homo sapiens, UniProt P14416, I397A) (P14416 whole entry I397A): as the sequence (P14416 whole entry) above, with I397A counted along it
Chain of DRD2 alanine-scan mutation library (Homo sapiens, UniProt P14416, E95A) (P14416 whole entry E95A): as the sequence (P14416 whole entry) above, with E95A counted along it
Chain of DRD2 alanine-scan mutation library (Homo sapiens, UniProt P14416, V91A) (P14416 whole entry V91A): as the sequence (P14416 whole entry) above, with V91A counted along it
Chain of DRD2 alanine-scan mutation library (Homo sapiens, UniProt P14416, Y192A) (P14416 whole entry Y192A): as the sequence (P14416 whole entry) above, with Y192A counted along it
Chain of DRD2 alanine-scan mutation library (Homo sapiens, UniProt P14416, V196A) (P14416 whole entry V196A): as the sequence (P14416 whole entry) above, with V196A counted along it
Chain of DRD2 alanine-scan mutation library (Homo sapiens, UniProt P14416, A177S) (P14416 whole entry A177S): as the sequence (P14416 whole entry) above, with A177S counted along it
Chain of DRD3 (P35462 whole entry): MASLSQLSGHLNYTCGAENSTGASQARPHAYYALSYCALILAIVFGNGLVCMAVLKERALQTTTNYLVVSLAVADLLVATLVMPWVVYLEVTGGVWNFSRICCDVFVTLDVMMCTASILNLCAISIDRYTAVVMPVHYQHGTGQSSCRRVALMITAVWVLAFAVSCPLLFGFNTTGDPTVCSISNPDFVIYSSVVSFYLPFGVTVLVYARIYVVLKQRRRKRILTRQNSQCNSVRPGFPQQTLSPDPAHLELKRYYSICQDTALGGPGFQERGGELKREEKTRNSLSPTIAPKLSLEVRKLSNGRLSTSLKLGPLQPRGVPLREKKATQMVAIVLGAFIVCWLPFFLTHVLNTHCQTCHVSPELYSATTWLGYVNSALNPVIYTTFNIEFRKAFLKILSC
Chain of DRD2 alanine-scan mutation library (Homo sapiens, UniProt P14416, L81A) (P14416 whole entry L81A): as the sequence (P14416 whole entry) above, with L81A counted along it
Chain of DRD1 (P21728 whole entry): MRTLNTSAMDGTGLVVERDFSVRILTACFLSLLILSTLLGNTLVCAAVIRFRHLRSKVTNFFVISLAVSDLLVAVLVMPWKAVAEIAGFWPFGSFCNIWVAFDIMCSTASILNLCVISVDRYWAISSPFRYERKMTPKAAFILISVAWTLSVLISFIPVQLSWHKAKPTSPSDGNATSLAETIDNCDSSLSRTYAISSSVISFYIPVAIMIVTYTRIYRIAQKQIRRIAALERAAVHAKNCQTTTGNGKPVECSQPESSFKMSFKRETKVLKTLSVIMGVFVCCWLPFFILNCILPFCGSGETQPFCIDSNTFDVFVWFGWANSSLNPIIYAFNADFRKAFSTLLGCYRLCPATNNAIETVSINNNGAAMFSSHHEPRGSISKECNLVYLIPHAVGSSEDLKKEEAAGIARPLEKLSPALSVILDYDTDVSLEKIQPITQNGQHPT
Chain of DRD4 (P21917 whole entry): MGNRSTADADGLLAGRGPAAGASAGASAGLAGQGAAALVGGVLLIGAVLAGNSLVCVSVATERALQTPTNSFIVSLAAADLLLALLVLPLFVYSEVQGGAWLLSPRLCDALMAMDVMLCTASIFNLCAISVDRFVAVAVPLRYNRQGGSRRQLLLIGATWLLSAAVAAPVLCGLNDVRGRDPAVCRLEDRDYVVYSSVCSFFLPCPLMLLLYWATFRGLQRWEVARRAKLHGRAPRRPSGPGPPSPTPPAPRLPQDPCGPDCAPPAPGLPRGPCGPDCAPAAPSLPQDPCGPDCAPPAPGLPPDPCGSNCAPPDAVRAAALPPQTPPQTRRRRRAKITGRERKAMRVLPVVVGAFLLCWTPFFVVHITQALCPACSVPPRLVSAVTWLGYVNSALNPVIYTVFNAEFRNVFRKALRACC
Chain of DRD2L (P14416 whole entry): as the sequence (P14416 whole entry) above
Chain of DRD5 (P21918 whole entry): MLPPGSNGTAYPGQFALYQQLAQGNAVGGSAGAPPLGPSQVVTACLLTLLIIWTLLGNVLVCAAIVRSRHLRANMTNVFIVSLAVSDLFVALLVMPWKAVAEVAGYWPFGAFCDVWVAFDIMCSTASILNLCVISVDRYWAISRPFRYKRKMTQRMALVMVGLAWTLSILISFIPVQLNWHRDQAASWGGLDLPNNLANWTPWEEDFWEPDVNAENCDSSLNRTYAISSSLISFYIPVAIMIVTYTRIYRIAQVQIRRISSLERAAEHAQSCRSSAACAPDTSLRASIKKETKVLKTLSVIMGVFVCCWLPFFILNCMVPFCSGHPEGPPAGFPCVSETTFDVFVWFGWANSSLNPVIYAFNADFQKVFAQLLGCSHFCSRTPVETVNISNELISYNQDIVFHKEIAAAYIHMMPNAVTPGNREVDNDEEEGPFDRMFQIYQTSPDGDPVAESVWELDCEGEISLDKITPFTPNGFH

Q: What does the source list for `Cc1ccccc1CN1C(=O)C2=C(CCN(Cc3ccccc3)C2)N2CCN=C12` [ONC201, 7-benzyl-4-(2-methylbenzyl)-1,2,6,7,8,9-hexahydroimidazo [1,2-a]pyrido [3,4-e]pyrimidin-5(1H)-one]?
A: GPCR activity, DRD2 [1]: selectively antagonizes; also recorded: antagonized; NOAEL [2]: 225 mg/kg; leukemia xenograft tumor growth (MV411 AML xenograft): not efficacious; viability at 5000 µg/mL (HCT116, MDA-MB-231, U87 [3]): < 25%; inhibition at 100 µM (human DRD2 [4]): > 95%; Calcium Flux as a % of flux with WT DRD2 (100), ONC201 100 μM [5]: 63%; Calcium Flux as a % of flux with WT DRD2 (100), ONC201 250 μM [5]: 20%; Calcium Flux as a % of flux with WT DRD2 (100), ONC201 100 μM [6]: 97%; Calcium Flux as a % of flux with WT DRD2 (100), ONC201 250 μM [6]: 39%; Calcium Flux as a % of flux with WT DRD2 (100), ONC201 100 μM [7]: 122%; Calcium Flux as a % of flux with WT DRD2 (100), ONC201 250 μM [7]: 89%; Calcium Flux as a % of flux with WT DRD2 (100), ONC201 100 μM [8]: 67%; Calcium Flux as a % of flux with WT DRD2 (100), ONC201 250 μM [8]: 28%; Calcium Flux as a % of flux with WT DRD2 (100), ONC201 100 μM [9]: 94%; Calcium Flux as a % of flux with WT DRD2 (100), ONC201 250 μM [9]: 58%; Calcium Flux as a % of flux with WT DRD2 (100), ONC201 100 μM [10]: 85%; Calcium Flux as a % of flux with WT DRD2 (100), ONC201 250 μM [10]: 11%; Calcium Flux as a % of flux with WT DRD2 (100), ONC201 100 μM [11]: 79%; Calcium Flux as a % of flux with WT DRD2 (100), ONC201 250 μM [11]: 22%; Calcium Flux as a % of flux with WT DRD2 (100), ONC201 100 μM [12]: 77%; Calcium Flux as a % of flux with WT DRD2 (100), ONC201 250 μM [12]: 26%; inhibition of DRD2 dopamine-induced calcium flux (human DRD2 [13]): completely inhibited; also recorded: complete inhibition; patients exhibiting induction of prolactin (prolactin): 10/11; interaction with nuclear hormone receptors [14]: no significant interactions; MIC ([15]; Staphylococcus aureus, ATCC29213): > 100 µg/mL; MIC99 ([15]; Staphylococcus aureus, ATCC29213, 24 h): > 100 µg/mL; MIC ([15]; Staphylococcus aureus, ATCC29213, 24 h, read-out: MIC95): > 100 µg/mL; MIC ([15]; Staphylococcus aureus, ATCC29213, 24 h, read-out: MIC, Visual): > 100 µg/mL; MIC ([16]; Staphylococcus aureus, ATCC33591): > 100 µg/mL; MIC99 ([16]; Staphylococcus aureus, ATCC33591, 24 h): > 100 µg/mL; MIC ([16]; Staphylococcus aureus, ATCC33591, 24 h, read-out: MIC95): > 100 µg/mL; MIC ([16]; Staphylococcus aureus, ATCC33591, 24 h, read-out: MIC, Visual): > 100 µg/mL; interaction with the kinome (kinome): no significant interactions; viability at 72 h (in vitro): ≥ 75%; GPCR activity, DRD1 (DRD1): no antagonism; viability of tumor cells (HCT116, MDA-MB-231, U87 [17]): ≤ 50%; GPCR activity, DRD5 (DRD5): no antagonism; effect on calcium flux of control GPCR (control GPCR): no effect; exposure required for efficacy (MV411 AML cells): 24 to 48 h; MIC ([18]; ATCC700699): > 100 µg/mL; MIC99 ([18]; ATCC700699, 48 h): > 100 µg/mL; MIC ([18]; ATCC700699, 48 h, read-out: MIC95): > 100 µg/mL; MIC ([18]; ATCC700699, 48 h, read-out: MIC, Visual): > 100 µg/mL; antagonism of DRD2L (DRD2L): direct, competitive antagonism; GPCR activity, DRD4 (DRD4): weaker potency

Q: With `O=C1C2=C(CCN(Cc3ccccc3)C2)N2CCN=C2N1Cc1ccc(F)c(F)c1` [ONC213] as the molecule, how does the “GPCR activity, DRD2” value [1] read?
A: DRD2/3 inhibitor; also recorded: more than ONC201 but less than ONC206

Q: And the “GPCR activity, DRD3” value (DRD3)?
A: DRD2/3 inhibitor; also recorded: more than ONC201 but less than ONC206

Q: And the “in vitro toxicity to normal cells” value (normal cells)?
A: reduced compared to ONC212

Q: And the NOAEL [19]?
A: 75 mg/kg

Q: What about the “Relative Potency*” value (human cancer cells) of the same molecule?
A: A (A Indicates a potency increase of >2-fold of ONC201)

Q: What about the “GPCR activity, GPR132” value (GPR132) of the same molecule?
A: less than ONC212; also recorded: GPR132/91 agonist

Q: What about the MIC ([15]; ATCC29213, wild type Staphylococcus aureus (ATCC 29213), read-out: MIC) of the same molecule?
A: 25 µg/mL (≈ 61.2 µM)

Q: And the MIC90 ([15]; Staphylococcus aureus, ATCC29213, ATCC 29213, 24 hours, read-out: MIC90)?
A: 12.5 µg/mL (≈ 30.6 µM)

Q: And the MIC ([15]; Staphylococcus aureus, ATCC29213, ATCC 29213, 24 hours, read-out: MIC95)?
A: 12.5 µg/mL (≈ 30.6 µM)

Q: What about the MIC99 ([15]; Staphylococcus aureus, ATCC29213, ATCC 29213, 24 hours, read-out: MIC99) of the same molecule?
A: 25 µg/mL (≈ 61.2 µM)

Q: And the MIC ([15]; Staphylococcus aureus, ATCC29213, ATCC 29213, 24 hours, read-out: MIC, Visual)?
A: 25 µg/mL (≈ 61.2 µM)

Q: What about the MIC ([16]; ATCC33591, Staphylococcus aureus (ATCC 33591), methicillin resistant, read-out: MIC) of the same molecule?
A: 3.13 µg/mL (≈ 7.66 µM)

Q: What about the MIC90 ([16]; Staphylococcus aureus, ATCC33591, ATCC 33591, 24 hours, read-out: MIC90) of the same molecule?
A: 3.13 µg/mL (≈ 7.66 µM)

Q: What about the MIC ([16]; Staphylococcus aureus, ATCC33591, ATCC 33591, 24 hours, read-out: MIC95) of the same molecule?
A: 6.25 µg/mL (≈ 15.3 µM)

Q: And the MIC99 ([16]; Staphylococcus aureus, ATCC33591, ATCC 33591, 24 hours, read-out: MIC99)?
A: 100 µg/mL (≈ 245 µM)

Q: And the MIC ([16]; Staphylococcus aureus, ATCC33591, ATCC 33591, 24 hours, read-out: MIC, Visual)?
A: 3.12 µg/mL (≈ 7.65 µM)

Q: And the “GPCR activity, GPR91” value (GPR91)?
A: GPR132/91 agonist

Q: And the MIC90 ([18]; ATCC700699, ATCC 700699 (48 hours), read-out: MIC90)?
A: 6.25 µg/mL (≈ 15.3 µM)

Q: And the MIC ([18]; ATCC700699, ATCC 700699 (48 hours), read-out: MIC95)?
A: 12.5 µg/mL (≈ 30.6 µM)

Q: What about the MIC99 ([18]; ATCC700699, ATCC 700699 (48 hours), read-out: MIC99) of the same molecule?
A: 12.5 µg/mL (≈ 30.6 µM)

Q: What about the MIC ([18]; ATCC700699, ATCC 700699 (48 hours), read-out: MIC, Visual) of the same molecule?
A: 12.5 µg/mL (≈ 30.6 µM)
